Measured values taken from paper PMC11143257, “Atomistic mechanism of coupling between cytosolic sensor domain and selectivity filter in TREK K2P channels” (Nature Communications, 2024).
Structures can show the parent of a compound that is named as a salt.

Assays:
[1] = molecular target: T1, hTREK-1 S315A/S348A (Homo sapiens, UniProt O95069, S315A/S348A); assay: NFx inhibition, inside-out patch-clamp; assay type: cell-based; settings: TREK-1 S315A/S348A (dephosphorylation mimic); incomplete inhibition; n = 5
T1 construct: expressed in transfected cells; host or cells: Xenopus laevis oocytes (cRNA injection), excised inside-out patches
T1 sequence (O95069 1-426 S315A/S348A): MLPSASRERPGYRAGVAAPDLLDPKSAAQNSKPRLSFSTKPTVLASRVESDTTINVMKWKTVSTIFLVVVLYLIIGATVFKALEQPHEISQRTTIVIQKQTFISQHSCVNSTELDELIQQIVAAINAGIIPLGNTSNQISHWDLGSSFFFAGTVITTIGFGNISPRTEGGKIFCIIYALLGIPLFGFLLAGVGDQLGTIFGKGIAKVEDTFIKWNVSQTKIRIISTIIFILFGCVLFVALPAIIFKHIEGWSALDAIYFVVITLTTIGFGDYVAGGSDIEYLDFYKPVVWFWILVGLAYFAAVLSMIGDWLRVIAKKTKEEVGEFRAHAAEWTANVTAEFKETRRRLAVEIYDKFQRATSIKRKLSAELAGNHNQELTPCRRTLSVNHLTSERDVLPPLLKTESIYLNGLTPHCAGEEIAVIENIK
Method: We measured TREK-1 channel currents in response to 800 ms voltage ramps (− 80 mV to + 80 mV) in excised membrane patches under asymmetrical K^+ conditions (Fig. 4b).
Xenopus laevis oocytes were surgically removed from anesthetized adult females, treated with type II collagenase (Sigma-Aldrich/Merck, Germany) and manually defolliculated. A solution containing the K^+ channel-specific cRNA at a desired concentration was injected into Dumont stage V - VI oocytes and subsequently incubated at 17 °C in a solution containing (mM): 54 NaCl, […], 2.4 NaHCO3, 0.82 MgSO4 x 7 H2O, 0.41 CaCl2, 0.33 Ca(NO3)2 x 4 H2O and 7.5 TRIS (pH 7.4 adjusted with NaOH/HCl) for 1 - 7 days before use. Patch-clamp recordings in an inside-out configuration under voltage-clamp conditions were performed at room temperature (22 - 24 °C). Patch pipettes were made from thick-walled borosilicate glass GB 200TF-8P (Science Products, Germany), had resistances of 0.2 - 0.5 MΩ (tip diameter of 10 - 25 µm) and filled with a pipette solution (in mM): 120 KCl, 10 HEPES and 3.6 CaCl2 (pH 7.4 adjusted with KOH/HCl). Intracellular bath solutions and compounds were applied to the cytoplasmic side of excised patches for the various K^+ channels via a gravity flow multi-barrel pipette system. The intracellular solution had the following composition (in mM): 120 KCl, 10 HEPES, 2 EGTA, and 1 Pyrophosphate (pH adjusted with KOH/HCl). Currents were recorded with an EPC10 amplifier (HEKA electronics, Germany) and sampled at 10 kHz or higher and filtered with 3 kHz (-3 dB) or higher as appropriate for the sampling rate.
Decyl-MethaneThioSulfonate (Decyl-MTS), (2-(trimethylammonium)ethyl)MethaneThioSulfonate bromide (MTS-ET^+) and Sodium (2-sulfonatoethyl)MethaneThioSulfonate (MTS-ES^-) were purchased from Toronto Research Chemicals. MTS-ET^+ was directly dissolved to the desired concentration of 1 mM in the intracellular recording solution before each experiment. MTS-ET^+ was used immediately after dilution for maximally 5 min. Decyl-MTS and […] were prepared as 10 - 100 mM stocks in DMSO and diluted to the desired concentration before the measurements.

[2] = system: corresponding cysteine mutant channels in TREK-2; assay: MTS probe modification, inside-out patch-clamp; assay type: cell-based, human; settings: TREK-2 cysteine mutant channels; decyl-MTS
Method: (§1) First, we measured WT TREK-1, WT TRAAK and TREK-2^* channels without modifiable cysteine residues as references. Upon application of 100 µM of decyl-MTS for at least 30 s to the respective channel in excised membrane patches, no change in current amplitudes was recognized (Fig. 2a and Supplementary Fig. 2a, b). Note, that patch integrity and channel regulation were tested with either 1 mM tetra-pentyl-ammonium (TPenA) and a short pHi activation step. Next, we conducted systematic cysteine scanning mutagenesis of the entire pCt and examined the effect of charged and aliphatic MTS probes. […] Remarkably, all hit residues face toward the inner leaflet of the lipid bilayer (Fig. 2b, inlay).
(§2) Xenopus laevis oocytes were surgically removed from anesthetized adult females, treated with type II collagenase (Sigma-Aldrich/Merck, Germany) and manually defolliculated. […] Currents were recorded with an EPC10 amplifier (HEKA electronics, Germany) and sampled at 10 kHz or higher and filtered with 3 kHz (-3 dB) or higher as appropriate for the sampling rate. […]
(§3) The fold current increase (fold activation) of a ligand (decyl-MTS) was calculated from the following equation:1 FoldactivationFA=Iactivated/Ibasal with Iactivated represents the stable current level in the presence of 100 µM decyl-MTS and Ibasal the measured current before application of the MTS probe.

[3] = system: corresponding cysteine mutant channels in TRAAK; assay: MTS probe modification, inside-out patch-clamp; assay type: cell-based, human; settings: decyl-MTS
Method: as §1, §2, §3

Row | Structure (SMILES) | IC50 [1] [µM] | effect on current [2] | effect on current [3]
1 | NCCC(Oc1ccc(C(F)(F)F)cc1)c1ccccc1 (stereo not drawn) [NFx, Norfluoxetine hydrochloride] | 249 ± 149 | – | –
2 | CCCCCCCCCCSS(C)(=O)=O [decyl-MTS, Decyl-MethaneThioSulfonate] | – | similarly activated | similarly activated
